Read-outs that look alike come from different tables or passages of the source.
Key:
PI3Kα = settings: cited from earlier work
PI3Kβ = settings: compared with PI3Kα and mTOR; cited from earlier work
NOTCH1-mutant HNSCC = settings: one heavily pretreated patient with NOTCH1-mutant HNSCC, thoracic metastases; cited from earlier work
[1] = Phase II trial, PK analysis: pre-dose and 1 h post-dose blood levels by HPLC; type: in vivo, human; settings: for Cmax: human, serum, 140 mg; for Trough: pre-dose
Procedure: Blood was collected before oral dose administration and 1 hour after oral dose administration on days 1, 8, 22, 43, and 64 after the start of therapy. Bimiralisib levels were determined as previously described using high-performance liquid chromatography[8-11] by Charles River Laboratories (Ashland, Ohio). The pre-dose levels were the trough levels and post-dose levels were the assumed peak serum concentration (Cmax) values. Cmax and trough accumulation ratios were calculated by dividing each patient’s treatment day concentration by their initial available drug concentration—day 1 for Cmax and day 8 for trough. Statistical differences among groups were identified by analysis of variance using Statistica version 13.1 (TIBCO Software Inc., Palo Alto, California); P < .05 was considered statistically significant

mTOR = settings: cited from earlier work

## Nc1cc(C(F)(F)F)c(-c2nc(N3CCOCC3)nc(N3CCOCC3)n2)cn1 [Bimiralisib, 5-(4,6-dimorpholino-1,3,5-triazin-2-yl)-4-(trifluoromethyl)pyridin-2-amine]
PI3Kα
  Inhibition of PI3Kα: potently inhibits
PI3Kβ
  Potency against PI3Kβ: less potency
NOTCH1-mutant HNSCC
  Duration of partial response: 9 months
[1]; oral, 140-mg dose, current study, read-out: Maximum Cmax value
  Cmax: 970 ng/mL
[1]; po, median, Day 1 (n = 6), 1 hour after 140 mg oral dose, read-out: C max
  Cmax: 574 ng/mL
[1]; po, median, Day 8 (n = 6), 1 hour after oral dose, read-out: C max
  Cmax: 574 ng/mL
[1]; po, median, Day 22 (n = 5), 1 hour after oral dose, read-out: C max
  Cmax: 691 ng/mL
[1]; po, median, Day 43 (n = 4), 1 hour after oral dose, read-out: C max
  Cmax: 526 ng/mL
[1]; po, median, Day 64 (n = 5), 1 hour after oral dose, read-out: C max
  Cmax: 546 ng/mL
[1]; intermittent dosing regimen
  Cmax accumulation: not observed
[1]; median, Day 8 (n = 6)
  Trough: 62 ng/mL
[1]; median, Day 8 vs day 1
  C max accumulation ratio: 0.78
[1]; median, Day 22 (n = 5)
  Trough: 101 ng/mL
[1]; median, Day 22 vs day 1
  C max accumulation ratio: 1.18
[1]; median, Day 22 vs day 8
  Trough accumulation ratio: 1.11
[1]; median, Day 43 (n = 4)
  Trough: 11.6 ng/mL
[1]; median, Day 43 vs day 1
  C max accumulation ratio: 0.82
[1]; median, Day 43 vs day 8
  Trough accumulation ratio: 0.94
[1]; median, Day 64 (n = 5)
  Trough: 139 ng/mL
[1]; median, Day 64 vs day 1
  C max accumulation ratio: 0.94
[1]; median, Day 64 vs day 8
  Trough accumulation ratio: 0.63
mTOR
  Inhibition of mTOR: potently inhibits

Source: PMC9732253, “Inhibition of the Phosphatidylinositol-3 Kinase Pathway Using Bimiralisib in Loss-of-Function NOTCH1-Mutant Head and Neck Cancer” (The Oncologist, 2022)
